PMC8342458, “GluN2A and GluN2B NMDA receptors use distinct allosteric routes” (Nature Communications, 2021)
Values joined by “and” are separate entries in the source; they are usually repeats but may differ in a detail not shown here. Identical values can stand only once. Like-named read-outs stand apart in the source and are kept apart here.

How the values were obtained:
[1] = target: T1, wild-type (wt) GluN1/GluN2B receptors (UniProt P35439+Q01097); assay: TEVC recordings in Xenopus oocytes, allosteric modulator sensitivity; type: cell-based, rat (GluN1), mouse (GluN2B)
T1 construct: For full-length multimeric membrane-embedded receptors studied in cellulo, as done in the present work; expressed in transfected cells; host or cells: Xenopus laevis oocytes (nuclear cDNA injection, pcDNA3 plasmids)
T1 sequence (Q01097 27-1482, other chains not shown): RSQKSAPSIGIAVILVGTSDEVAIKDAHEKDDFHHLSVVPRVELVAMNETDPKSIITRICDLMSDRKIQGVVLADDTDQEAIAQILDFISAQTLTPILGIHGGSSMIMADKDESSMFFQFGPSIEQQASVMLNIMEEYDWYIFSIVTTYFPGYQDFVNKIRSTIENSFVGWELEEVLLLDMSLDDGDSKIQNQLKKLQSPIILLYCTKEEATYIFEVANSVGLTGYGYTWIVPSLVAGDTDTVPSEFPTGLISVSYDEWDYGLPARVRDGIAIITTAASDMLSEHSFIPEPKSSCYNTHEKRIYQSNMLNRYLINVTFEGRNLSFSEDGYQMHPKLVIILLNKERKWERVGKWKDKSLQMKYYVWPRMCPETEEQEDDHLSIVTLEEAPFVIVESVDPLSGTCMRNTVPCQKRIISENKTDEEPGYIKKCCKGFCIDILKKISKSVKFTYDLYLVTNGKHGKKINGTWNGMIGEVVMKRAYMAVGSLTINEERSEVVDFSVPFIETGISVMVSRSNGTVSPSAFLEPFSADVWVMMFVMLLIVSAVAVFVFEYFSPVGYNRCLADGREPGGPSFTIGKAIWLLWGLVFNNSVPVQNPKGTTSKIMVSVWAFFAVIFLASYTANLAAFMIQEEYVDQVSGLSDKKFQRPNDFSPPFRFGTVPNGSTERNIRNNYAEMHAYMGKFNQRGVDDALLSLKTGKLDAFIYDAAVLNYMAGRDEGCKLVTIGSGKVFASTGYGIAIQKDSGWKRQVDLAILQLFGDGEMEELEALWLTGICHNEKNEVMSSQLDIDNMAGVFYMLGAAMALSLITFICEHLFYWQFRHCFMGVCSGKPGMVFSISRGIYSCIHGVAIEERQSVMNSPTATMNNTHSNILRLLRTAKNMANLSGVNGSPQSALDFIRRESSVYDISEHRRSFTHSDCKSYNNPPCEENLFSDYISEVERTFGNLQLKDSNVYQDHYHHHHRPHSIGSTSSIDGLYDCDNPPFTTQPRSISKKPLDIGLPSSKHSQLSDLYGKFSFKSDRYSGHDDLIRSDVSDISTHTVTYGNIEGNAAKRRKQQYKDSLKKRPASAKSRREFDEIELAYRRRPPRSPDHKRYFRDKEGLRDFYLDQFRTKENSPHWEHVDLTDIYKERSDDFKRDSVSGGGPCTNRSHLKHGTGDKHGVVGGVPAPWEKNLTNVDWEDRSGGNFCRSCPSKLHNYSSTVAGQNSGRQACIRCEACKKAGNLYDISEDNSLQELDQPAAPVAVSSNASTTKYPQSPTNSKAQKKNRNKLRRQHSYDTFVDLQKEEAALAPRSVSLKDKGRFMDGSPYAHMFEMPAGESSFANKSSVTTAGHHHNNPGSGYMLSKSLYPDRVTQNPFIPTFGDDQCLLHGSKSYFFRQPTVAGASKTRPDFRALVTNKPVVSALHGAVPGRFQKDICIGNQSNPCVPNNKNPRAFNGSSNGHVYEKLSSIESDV
Procedure: (§1) The pcDNA3-based expression plasmids for rat GluN1-1a (named GluN1 herein), rat GluN2A, and mouse GluN2B (also known as ε2) subunits, Pfu-based site-directed mutagenesis strategy, and sequencing procedure have been described previously[68],[69]. Incorporation of the unnatural amino acids (UAAs) AzF and BzF into NMDARs was performed using the genetic code expansion methodology as previously described[52],[53],[83]. The plasmid pSVB.Yam carrying the gene encoding the amber suppressor tRNA derived from B. stearothermophilus Tyr-tRNACUA, while the aminoacyl-tRNA synthetases (aaRS) construction for AzF and BzF derived from E. coli TyrRS[84],[85].
(§2) Recombinant NMDARs were expressed in Xenopus laevis oocytes after nuclear injection of 36 nl of a mixture of cDNAs (at 10–30 ng/μl) encoding various GluN1 and GluN2 subunits (ratio 1:1). Oocytes were prepared, injected, incubated, and voltage-clamped as described previously. For UAA incorporation, oocytes were co-injected with 36 nl of a cDNA mixture encoding for of GluN1, GluN2, Yam, and aaRS as follows, unless otherwise indicated in the text: GluN1-K178amber (120 ng/μl), GluN2A (80 ng/µl) or GluN2B (120 ng/μl), Yam (10 ng/μl), AzF-RS (5 ng/μl). After injection, oocytes were incubated at 19 °C in a Barth solution containing (in mM) 88 NaCl, 1 KCl, 0.33 Ca(NO3)2, 0.41 CaCl2, 0.82 MgSO4, 2.4 NaHCO3, 10 HEPES (pH adjusted to 7.6 with NaOH) supplemented with gentamicin ([…]) and the NMDAR glutamate binding site competitive antagonist D-APV (50 μM). AzF and BzF were added to the incubation medium at final concentrations of 1 mM and 2 mM, respectively.
(§3) For all experiments, except those on pH and spermine sensitivity, the standard external solution contained (in mM): 100 NaCl, 0.3 BaCl2, and 5 HEPES (pH adjusted to 7.3 with KOH). […] For the pH and spermine sensitivity experiments, an external solution enriched in HEPES was used to insure proper pH buffering. Unless otherwise mentioned, NMDAR-mediated currents were induced by simultaneously applications of saturating concentrations of glutamate and glycine (100 μM each). Glutamate and glycine dose-response curves (DRC) were performed in the presence of 100 µM glycine and 100 µM glutamate, respectively. Recordings were performed at a holding potential of −60 mV and at room temperature. Data were collected and analyzed using Clampex 10.5 and Clampfit 10.5 (Molecular Devices), respectively, and fitted using KaleidaGraph 4.0 (Synergy software).
(§4) EC50 and nH were fitted as free parameters. […] For proton DRC, corrections for small shifts in the reference potential of bath electrodes and analysis of the data were performed as previously described. Spermine experiments were performed and analyzed as previously described. In brief, spermine sensitivity was assessed at pH 6.5 and at a holding potential of −30 mV to maximize the spermine induced potentiation. […] EC50, a and nH were set as free parameters. MK-801 is an NMDAR open channel blocker with slow reversibility and, consequently, the rate at which MK-801 inhibits NMDAR responses depends on the level of channel activity, that is, channel open probability (Po). Based on this principle, MK-801 is classically used to estimate the level of NMDAR channel activity in macroscopic whole-cell recordings[36],[47],[56],[86],[87]. Note, however, that MK- 801 inhibition kinetics can index relative, not absolute, Po. MK-801 solutions (10 nM for GluN2A-containing receptors and 50 nM for GluN2B-containing receptors) were prepared by dilution of a stock solution (50 mM) into the agonist containing solutions. MK-801 time constants of inhibition (τon) were obtained by fitting currents with a single-exponential component to a time window corresponding to 10–90% of maximum inhibition. On-rate (kon) constants were then calculated assuming a pseudo first-order reaction scheme: kon = 1 / ([MK-801]*τon).

[2] = target: T2, GluN1-N512C-L777C/GluN2B-E517C-L781C receptors (UniProt P35439+Q01097, E517C/L777C/L781C/N521C); assay: TEVC recordings in Xenopus oocytes, zinc and ifenprodil inhibition dose-response; type: cell-based, rat (GluN1), mouse (GluN2B)
T2 construct: For full-length multimeric membrane-embedded receptors studied in cellulo, as done in the present work; expressed in transfected cells; host or cells: Xenopus laevis oocytes
T2 sequence (Q01097 27-1482 E517C/L781C, other chains not shown): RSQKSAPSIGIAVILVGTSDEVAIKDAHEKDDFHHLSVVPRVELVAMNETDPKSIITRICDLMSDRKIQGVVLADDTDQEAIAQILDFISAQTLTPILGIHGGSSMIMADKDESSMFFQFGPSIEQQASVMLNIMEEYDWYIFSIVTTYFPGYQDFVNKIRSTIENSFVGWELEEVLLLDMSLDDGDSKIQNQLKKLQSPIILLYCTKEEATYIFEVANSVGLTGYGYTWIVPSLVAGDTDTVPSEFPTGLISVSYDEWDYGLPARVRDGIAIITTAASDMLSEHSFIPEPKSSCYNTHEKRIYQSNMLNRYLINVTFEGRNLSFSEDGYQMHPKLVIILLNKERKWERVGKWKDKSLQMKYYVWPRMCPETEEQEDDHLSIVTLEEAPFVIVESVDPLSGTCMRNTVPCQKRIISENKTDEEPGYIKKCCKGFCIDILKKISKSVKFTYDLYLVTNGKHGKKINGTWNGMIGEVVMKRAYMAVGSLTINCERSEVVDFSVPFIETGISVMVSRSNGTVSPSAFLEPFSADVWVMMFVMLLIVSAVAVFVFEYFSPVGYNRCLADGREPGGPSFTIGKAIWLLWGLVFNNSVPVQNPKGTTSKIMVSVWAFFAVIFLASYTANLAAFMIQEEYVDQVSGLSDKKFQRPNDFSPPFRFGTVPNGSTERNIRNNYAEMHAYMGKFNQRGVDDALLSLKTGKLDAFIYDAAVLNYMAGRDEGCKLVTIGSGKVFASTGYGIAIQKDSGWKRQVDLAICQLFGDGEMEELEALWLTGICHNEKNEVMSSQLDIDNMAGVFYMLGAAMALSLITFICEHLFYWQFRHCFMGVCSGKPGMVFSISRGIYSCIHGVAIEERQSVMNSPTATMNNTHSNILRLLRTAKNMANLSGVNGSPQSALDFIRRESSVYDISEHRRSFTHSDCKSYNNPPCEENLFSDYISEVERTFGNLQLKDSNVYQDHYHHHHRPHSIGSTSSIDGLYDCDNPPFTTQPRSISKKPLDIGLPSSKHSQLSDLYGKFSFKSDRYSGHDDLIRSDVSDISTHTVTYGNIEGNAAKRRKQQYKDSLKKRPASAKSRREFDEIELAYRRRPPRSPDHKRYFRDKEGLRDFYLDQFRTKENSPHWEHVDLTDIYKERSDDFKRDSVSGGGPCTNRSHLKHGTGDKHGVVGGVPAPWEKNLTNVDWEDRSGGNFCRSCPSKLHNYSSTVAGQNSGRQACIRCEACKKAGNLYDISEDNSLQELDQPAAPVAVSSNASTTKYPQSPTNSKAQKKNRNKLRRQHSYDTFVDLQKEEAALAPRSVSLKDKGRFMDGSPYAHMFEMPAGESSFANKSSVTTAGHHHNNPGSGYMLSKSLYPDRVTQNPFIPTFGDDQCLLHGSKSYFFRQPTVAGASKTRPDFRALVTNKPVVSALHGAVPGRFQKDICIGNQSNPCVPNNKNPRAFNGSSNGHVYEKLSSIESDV
Procedure: as §1, §2, §3, §4

[3] = target: T3, GluN1-L777C/GluN2B-E517C-L781C receptors (UniProt P35439+Q01097, E517C/L777C/L781C/N521C); assay: as above; type: cell-based, rat (GluN1), mouse (GluN2B); conditions: read-out: Zn2+ IC50
T3 construct: For full-length multimeric membrane-embedded receptors studied in cellulo, as done in the present work; expressed in transfected cells; host or cells: Xenopus laevis oocytes
Procedure: as §1, §2, §3, §4

[4] = target: T4, GluN1/GluN2B-N218C receptors (UniProt P35439+Q01097, N218C); assay: as above; type: cell-based, rat (GluN1), mouse (GluN2B)
T4 construct: For full-length multimeric membrane-embedded receptors studied in cellulo, as done in the present work; expressed in transfected cells; host or cells: Xenopus laevis oocytes
T4 sequence (Q01097 27-1482 N218C, other chains not shown): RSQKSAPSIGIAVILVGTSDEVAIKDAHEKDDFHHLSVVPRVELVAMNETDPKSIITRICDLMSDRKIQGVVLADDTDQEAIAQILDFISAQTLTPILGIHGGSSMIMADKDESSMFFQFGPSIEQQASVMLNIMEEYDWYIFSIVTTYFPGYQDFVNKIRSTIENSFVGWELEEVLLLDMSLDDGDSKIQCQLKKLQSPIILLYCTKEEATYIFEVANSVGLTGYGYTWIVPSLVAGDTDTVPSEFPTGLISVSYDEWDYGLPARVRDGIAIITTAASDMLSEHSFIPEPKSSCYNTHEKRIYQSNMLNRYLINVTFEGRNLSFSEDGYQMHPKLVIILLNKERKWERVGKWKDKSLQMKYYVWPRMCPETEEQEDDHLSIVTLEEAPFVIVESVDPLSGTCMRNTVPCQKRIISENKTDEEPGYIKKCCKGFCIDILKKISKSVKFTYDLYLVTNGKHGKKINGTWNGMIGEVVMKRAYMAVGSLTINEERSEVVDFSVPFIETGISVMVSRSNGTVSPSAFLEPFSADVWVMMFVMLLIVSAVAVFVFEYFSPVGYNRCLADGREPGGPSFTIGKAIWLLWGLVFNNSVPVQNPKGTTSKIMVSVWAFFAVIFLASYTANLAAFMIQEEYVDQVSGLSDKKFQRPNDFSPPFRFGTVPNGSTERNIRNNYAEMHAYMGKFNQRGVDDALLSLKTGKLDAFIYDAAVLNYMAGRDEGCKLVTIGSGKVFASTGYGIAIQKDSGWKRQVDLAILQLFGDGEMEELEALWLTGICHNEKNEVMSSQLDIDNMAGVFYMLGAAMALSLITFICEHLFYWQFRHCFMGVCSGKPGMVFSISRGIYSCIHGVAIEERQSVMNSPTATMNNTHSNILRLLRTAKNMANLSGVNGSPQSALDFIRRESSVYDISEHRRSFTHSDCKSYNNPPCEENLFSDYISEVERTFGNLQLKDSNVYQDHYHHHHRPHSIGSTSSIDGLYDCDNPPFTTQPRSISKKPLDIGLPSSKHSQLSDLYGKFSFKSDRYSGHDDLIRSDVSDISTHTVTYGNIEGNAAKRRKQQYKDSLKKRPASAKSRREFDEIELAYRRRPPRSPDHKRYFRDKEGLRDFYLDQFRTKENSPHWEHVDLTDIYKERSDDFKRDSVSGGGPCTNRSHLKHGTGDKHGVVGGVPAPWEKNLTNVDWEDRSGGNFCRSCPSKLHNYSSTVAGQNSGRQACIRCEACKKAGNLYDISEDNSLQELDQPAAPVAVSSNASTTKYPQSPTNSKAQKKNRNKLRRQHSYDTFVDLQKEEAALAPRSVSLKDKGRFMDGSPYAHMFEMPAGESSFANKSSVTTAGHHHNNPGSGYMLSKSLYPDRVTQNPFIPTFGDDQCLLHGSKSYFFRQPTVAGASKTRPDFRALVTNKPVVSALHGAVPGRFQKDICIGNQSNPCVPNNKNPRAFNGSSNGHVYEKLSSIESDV
Procedure: as §1, §2, §3, §4

[5] = target: T5, GluN1-K178AzF/GluN2A receptors (Rattus norvegicus, UniProt P35439+Q00959); assay: TEVC recordings in Xenopus oocytes, modulator sensitivity before and after UV photocrosslinking; type: cell-based; conditions: read-out: Zn2+ IC50
T5 construct: For full-length multimeric membrane-embedded receptors studied in cellulo, as done in the present work; expressed in transfected cells; host or cells: Xenopus laevis oocytes, co-injected with amber suppressor tRNA (Yam) and AzF-RS
Procedure: as §1, §2, §3, §4

[6] = target: T6, GluN1-K178AzF/GluN2A receptors (Rattus norvegicus, UniProt P35439+Q00959, K178F); assay: as above; type: cell-based; conditions: for Izn/Io 1 nM: 1 nM zinc; for Izn/Io 10 nM: 10 nM zinc; for Izn/Io 1000 nM: 1000 nM zinc
T6 construct: For full-length multimeric membrane-embedded receptors studied in cellulo, as done in the present work; expressed in transfected cells; host or cells: Xenopus laevis oocytes, co-injected with amber suppressor tRNA (Yam) and AzF-RS
Procedure: as §1, §2, §3, §4

Structure (SMILES): [Zn+2] [zinc]
- Zn2+ Hill slope (nH) [1]: 1.08 ± 0.04 and 1.20 ± 0.04 and 0.96 ± 0.10
- Izn/Io 0.1 μM ([1]; 0.1 μM zinc): 0.80 ± 0.02 and 0.87 ± 0.02 and 0.78 ± 0.01
- Izn/Io 0.3 μM ([1]; 0.3 μM zinc): 0.54 ± 0.03
- Izn/Io 1 μM ([1]; 1 μM zinc): 0.39 ± 0.005 and 0.46 ± 0.03 and 0.37 ± 0.03
- Izn/Io 3 μM ([1]; 3 μM zinc): 0.18 ± 0.09
- IC50 ([1]; read-out: Zn2+ IC50): 720 nM and 970 nM and 590 nM
- Zn2+ Hill slope (nH) [2]: 0.88 ± 0.05
- Izn/Io 0.1 μM ([2]; 0.1 μM zinc): 0.78 ± 0.07
- Izn/Io 0.3 μM ([2]; 0.3 μM zinc): 0.60 ± 0.03
- Izn/Io 1 μM ([2]; 1 μM zinc): 0.40 ± 0.03
- Izn/Io 3 μM ([2]; 3 μM zinc): 0.23 ± 0.03
- Izn/Io 10 μM ([2]; 10 μM zinc): 0.10 ± 0.03
- IC50 [3]: 720 ± 50 nM
- Zn2+ Hill slope (nH) [4]: 1.01 ± 0.01
- Izn/Io 0.1 μM ([4]; 0.1 μM zinc): 0.95 ± 0.07
- Izn/Io 1 μM ([4]; 1 μM zinc): 0.72 ± 0.08
- Izn/Io 10 μM ([4]; 10 μM zinc): 0.22 ± 0.07
- IC50 ([4]; read-out: Zn2+ IC50): 3060 ± 40 nM
- IC50 ([5]; after UV): 7.69 ± 0.17 nM
- IC50 ([5]; before UV): 7.43 ± 1.1 nM
- Izn/Io 1 nM ([6]; +UV): 0.94 ± 0.01
- Izn/Io 1 nM ([6]; -UV): 0.91 ± 0.02
- Izn/Io 10 nM ([6]; +UV): 0.70 ± 0.02
- Izn/Io 10 nM ([6]; -UV): 0.60 ± 0.01
- Izn/Io 1000 nM ([6]; +UV): 0.48 ± 0.04
- Izn/Io 1000 nM ([6]; -UV): 0.30 ± 0.03
- Zn2+ Hill slope (nH) ([6]; after UV): 1.05 ± 0.07
- Zn2+ maximal inhibition ([6]; after UV): 0.52 ± 0.04
- Zn2+ Hill slope (nH) ([6]; before UV): 0.99 ± 0.09
- Zn2+ maximal inhibition ([6]; before UV): 0.70 ± 0.03
